How the values were obtained:
[1] = system: limbal explant outgrowth cells; assay: Colony forming efficiency assay of cells harvested from explant outgrowth cultures; assay type: cell-based, human; details: cells from treated limbal explant outgrowth; cultured up to day 14; compared with control (FIG. 5)
Method: First, a 0.4-μm pore polyester membrane insert (Costar, NY) with a diameter of 25 mm was put into a 6-well plate, and pre-equilibrated overnight cultured in a supplemented hormonal epithelial medium (SHEM). The SHEM was composed of 950 ml of Dulbecco's modified minimal essential medium (DMEM)/F-12 medium in which DMEM and Ham F12 are mixed in a ratio of 1:1, 50 ml of fetal bovine serum (FBS), 5 ng of a human recombinant epidermal growth factor (EGF), 28 mg of phosphoethanolamine, lx insulin-transferrin-selenium (ITS, Gibco), and 1× penicillin-streptomycin (Gibco). […] After 72 hours of culturing, the presence of an encircling island of outgrowth cells were confirmed, and then the medium was replaced with a fresh medium that just covered a surface of the explant, every 72 hours. Here, the cells were cultured with 10 μM of the Wnt inhibitor (IWP2) or 3 μM of the GSK3 inhibitor (CHIR99021), and then experiments that will be described below were performed.

[2] = system: limbal stem cells (LSCs) in limbal explant outgrowth cultures; assay: Flow cytometry of JC1 low side population in limbal explant outgrowth cultures; assay type: cell-based, human; details: for % JC1^low, Mean: Explant culture, Table 1; for JC1 exclusion cell cohort (JC1^low) / percentage in a lower left quadrant (LLQ): limbal explant culture; for JC1 exclusion cell cohort (JC1^low): 10 μM IWP2 or 3 μM CHIR99021 (FIG. 3); for percentage in a lower left quadrant (LLQ): 10 μM IWP2 or 3 μM CHIR99021, FSC/SSC, stem/precursor somatic cells (FIG. 3)
Method: First, a 0.4-μm pore polyester membrane insert (Costar, NY) with a diameter of 25 mm was put into a 6-well plate, and pre-equilibrated overnight cultured in a supplemented hormonal epithelial medium (SHEM). The SHEM was composed of 950 ml of Dulbecco's modified minimal essential medium (DMEM)/F-12 medium in which DMEM and Ham F12 are mixed in a ratio of 1:1, 50 ml of fetal bovine serum (FBS), 5 ng of a human recombinant epidermal growth factor (EGF), 28 mg of phosphoethanolamine, lx insulin-transferrin-selenium (ITS, Gibco), and 1× penicillin-streptomycin (Gibco). […] After 72 hours of culturing, the presence of an encircling island of outgrowth cells were confirmed, and then the medium was replaced with a fresh medium that just covered a surface of the explant, every 72 hours. Here, the cells were cultured with 10 μM of the Wnt inhibitor (IWP2) or 3 μM of the GSK3 inhibitor (CHIR99021), and then experiments that will be described below were performed. In order to determine a relative cell size and ABCG2 efflux activity, cells from limal explant outgrowth cultures were harvested by treatment with trypsin, the collected cells were seeded in 6-well plates at a cell density of 2×10^4/well, treated with 250 nM JC1 dye and incubated for 45 minutes. Afterward, the cells were detached again by trypsin treatment and diluted with FACS buffer to perform FACS analysis. JC1 is a dye binding to mitochondria in cells, efflux of the JC1 dye from cells in a side population strongly expressing ATP-binding cassette sub-family G member 2 (ABCG2) results in inhibition of mitochondria staining. Therefore, flow cytometry was performed on the cells treated with the JC1 dye using a FACS Calibur (BD Biosciences) at an emission wavelength of 531(green)/585(orange), and the side population (JC1^low) that was not stained with JC1 was measured.

[3] = system: LSC markers p63α and ABCG2, differentiation marker Krt3; assay: Western blot of LSC markers and differentiation marker in limbal explant outgrowth cells; assay type: cell-based, human; details: for expression of the differentiation marker Krt3: western blot (FIG. 4); for protein expression of LSC marker ABCG2 / protein expression of LSC marker p63α: western blot, compared with control (FIG. 4)
Method: First, a 0.4-μm pore polyester membrane insert (Costar, NY) with a diameter of 25 mm was put into a 6-well plate, and pre-equilibrated overnight cultured in a supplemented hormonal epithelial medium (SHEM). The SHEM was composed of 950 ml of Dulbecco's modified minimal essential medium (DMEM)/F-12 medium in which DMEM and Ham F12 are mixed in a ratio of 1:1, 50 ml of fetal bovine serum (FBS), 5 ng of a human recombinant epidermal growth factor (EGF), 28 mg of phosphoethanolamine, lx insulin-transferrin-selenium (ITS, Gibco), and 1× penicillin-streptomycin (Gibco). Afterward, the limbal tissue cut into 8 sections with a length of 4 mm according to the method described in Example 1-1 was put on a polyester membrane to dispose an epithelial part face-up, and cultured under an air-liquid interface condition. After 72 hours of culturing, the presence of an encircling island of outgrowth cells were confirmed, and then the medium was replaced with a fresh medium that just covered a surface of the explant, every 72 hours. Here, the cells were cultured with 10 μM of the Wnt inhibitor (IWP2) or 3 μM of the GSK3 inhibitor (CHIR99021), and then experiments that will be described below were performed. Limbal explant outgrowth cells were washed with PBS, and lysed with a lysis buffer containing phosphatase inhibitor cocktail 2 (Sigma-Aldrich) and protease inhibitor cocktail (Roche Diagnostics). A lysate was boiled with a sample-loading buffer for 10 minutes and then centrifuged, resulting in isolation of a supernatant containing proteins in the cells, and a protein concentration was quantified using a BCA Protein Assay kit (Thermo Fisher Scientific, Rockford, Ill.). Afterward, equal amounts of protein in cell lysates were separated by 10% SDS-polyacrylamide gel electrophoresis (SDS-PAGE) under reducing conditions and electro-transferred to a PVDF membrane (Millipore, Billerica, Mass.). Afterward, The membrane was blocked with 5% skim milk in PBS containing 0.1% Tween 20, incubated at 4° C. for 18 h with primary mouse monoclonal antibodies (Abs) recognizing, β-catenin (BD Biosciences), ABCG2 (Abcam), Krt3 (Abcam) or a rabbit polyclonal antibody recognizing p63α (Abcam). After the washes, the membrane was incubated with a horseradish peroxidase-binding anti-mouse or anti-rabbit secondary antibody at room temperature for 1 hour. The membrane incubating with the secondary antibody was washed with 0.1% Tween 20-added PBS three times, treated with an ECL solution (Amersham Biosciences, Sweden) as a chemiluminescence reagent and developed, thereby analyzing an expression level of a protein to be observed. Also, to correct protein levels of the samples, a mouse monoclonal anti-β-actin primary antibody reacted with the membrane, and subsequent procedures were the same as described above. To identify effects of the Wnt/β-catenin signaling on LSC differentiation during the limbal explant culture, expression levels of the LSC markers p63α and ABCG2, and the differentiation marker Krt3 protein in the explant outgrowth cells were detected by western blot analysis according to the method described in Example 1-5.

[4] = system: human limbal explant; assay: Limbal explant outgrowth culture: outgrowth proliferation, area, cell yield, cell density; assay type: cell-based; details: for stained outgrowth area / cell yields: 10 μM IWP2 or 3 μM CHIR99021; for stained outgrowth area: Commassie blue R 250 staining, compared with control (FIG. 2a, 2b); for cell yields: trypan blue, hemocytometer, compared with normal control (FIG. 2c); for outgrowth proliferation rates of the explant: 10 μM IWP2 or 3 μM CHIR99021 in medium, phase contrast microscope, day 4 and 8, compared with control (FIG. 1); for Cell count, Mean: Explant culture, Table 1
Method: The corneal limbal tissue satisfying the above-described conditions was splitted into […] using a surgical instrument on a horizontal sterile-air-flow hood, and the conjunctival edge of each quarter was immersed shortly in 1% trypan blue (Sigma, USA) to stain conjunctival stroma, and all remnants of conjunctiva were carefully removed using conjunctival scissors. Afterward, a sclera tissue was trimmed away, and then each limbal strip was prepared after being cut to a thickness of 0.5 mm using a sharp blade. First, a 0.4-μm pore polyester membrane insert (Costar, NY) with a diameter of 25 mm was put into a 6-well plate, and pre-equilibrated overnight cultured in a supplemented hormonal epithelial medium (SHEM). The SHEM was composed of 950 ml of Dulbecco's modified minimal essential medium (DMEM)/F-12 medium in which DMEM and Ham F12 are mixed in a ratio of 1:1, 50 ml of fetal bovine serum (FBS), 5 ng of a human recombinant epidermal growth factor (EGF), 28 mg of phosphoethanolamine, lx insulin-transferrin-selenium (ITS, Gibco), and 1× penicillin-streptomycin (Gibco). Afterward, the limbal tissue cut into 8 sections with a length of 4 mm according to the method described in Example 1-1 was put on a polyester membrane to dispose an epithelial part face-up, and cultured under an air-liquid interface condition. After 72 hours of culturing, the presence of an encircling island of outgrowth cells were confirmed, and then the medium was replaced with a fresh medium that just covered a surface of the explant, every 72 hours. Here, the cells were cultured with 10 μM of the Wnt inhibitor (IWP2) or 3 μM of the GSK3 inhibitor (CHIR99021), and then experiments that will be described below were performed. To identify effects of the Wnt/β-catenin signaling on the limbal explant outgrowth cultures, cells were cultured by adding 10 μM of the Wnt inhibitor IWP2 or 3 μM of the Wnt signaling agonist CHIR99021 as a GSK3 inhibitor to a medium under the culture conditions for a human limbal explant cultures according to the methods described in Examples 1-1 and 1-2, and explant outgrowth proliferation was observed using a phase contrast microscope on day 4 and 8. […] In addition, cells were harvested by treating the limbal explant cultures with trypsin, stained with a 0.4% trypan blue solution, and cell yields were measured using a hemocytometer and then cell densities were quantitatively analyzed.

[5] = system: human limbal epithelial cells; assay: Flow cytometry of JC1 low ratio in isolated limbal epithelial cell (single cell) culture; assay type: cell-based; details: Table 1
Method: (§1) The limbal tissue divided according to the method described in Example 1-1 was treated with 2 mg/ml Dispase II (Roche, Indianapolis, Ind.) diluted with keratinocyte medium (KSFM; Invitrogen, Carlsbad, Calif.) and overnight cultured at 4° C. Afterward, a limbal epithelium layer was gently sloughed off from its stromal base under the dissecting microscope, the epithelium layer was treated with TrypLE (GIBCO, Denmark) and cultured for 10 minutes, and then triturated with a pipette to generate a single cell suspension. These cells were seeded into a 25T flask coated with human type I collagen (PureCol^R, Biomatrix, SanDiego, Calif.) to be dispensed at a density of 2×10^5 cells/flask, and cultured in Cnt50 medium (Cell-N-Tec, Bern, Switzerland) complemented with bovine pituitary extract for up to 2 weeks.
In order to determine a relative cell size and ABCG2 efflux activity, cells from limal explant outgrowth cultures were harvested by treatment with trypsin, the collected cells were seeded in 6-well plates at a cell density of 2×10^4/well, treated with 250 nM JC1 dye and incubated for 45 minutes. […] Therefore, flow cytometry was performed on the cells treated with the JC1 dye using a FACS Calibur (BD Biosciences) at an emission wavelength of 531(green)/585(orange), and the side population (JC1^low) that was not stained with JC1 was measured. […]

[6] = system: human limbal epithelial cells; assay: Viable cell count / cell yield in isolated limbal epithelial cell (single cell) culture; assay type: cell-based; details: for Cell count, Mean: Epithelial cells (single cell culture), Table 1
Method: as §1
According to Examples 2 to 4, it was identified that, in the limbal explant culture, the Wnt/β-catenin signaling is involved in the stimulation of explant outgrowth proliferation per unit area, and sternness improvement and differentiation inhibition of LSCs. Accordingly, an experiment was conducted to confirm whether the same effects as described above would be obtained, even when limbal epithelial cells were dissociated according to the method described in Example 1-3, and cultured as single cells. To this end, the limbal explant outgrowth cells according to the method described in Example 1-2 and the cells proliferated from the limbal epithelial cells according to the method described in Example 1-3 were harvested, and each type of cells was subjected to FACS analysis to measure a JC1^low ratio.
Based on the results of Example 6-1, cells cultured by the same method as described above were recovered to measure viable cell counts, yields of the limbal epithelial cells were measured.

SMILES | colony forming efficiency (CFE) [1] | % JC1^low, Mean [2] [%] | JC1 exclusion cell cohort (JC1^low) [2] [%] | percentage in a lower left quadrant (LLQ) [2] [%] | expression of the differentiation marker Krt3 [3] | protein expression of LSC marker ABCG2 [3] | protein expression of LSC marker p63α [3] | stained outgrowth area [4] | cell yields [4] | outgrowth proliferation rates of the explant [4] | Cell count, Mean [4] | % JC1^low, Mean [5] [%] | Cell count, Mean [6] | cell yields (viable cell counts) ([6]; single cell culture of limbal tissues (FIG. 6)) | cell density ([4]; 10 μM IWP2, cells/mm^2, compared with control and CHIR99021 group (FIG. 2d))
Cc1c[nH]c(-c2cnc(NCCNc3ccc(C#N)cn3)nc2-c2ccc(Cl)cc2Cl)n1 [CHIR99021] | remarkably lower CFE | 6.4 | 10.9±1.3 | 50.7±10.1 | increased | remarkably decreased | remarkably decreased | smaller area | significantly decreased | sequentially decreased | 0.8 1 × 10^5 | 23.9 | 7.0 1 × 10^5 | very low | –
Cc1ccc2nc(NC(=O)CSc3nc4c(c(=O)n3-c3ccccc3)SCC4)sc2c1 [IWP2, N-(6-Methyl-2-benzothiazolyl)-2-[(3,4,6,7-tetrahydro-4-oxo-3-phenylthieno[3,2-d]pyrimidin-2-yl)thio]-acetamide] | remarkably higher CFE | 27.9 | 29.6±2.6 | 72.8±1.9 | barely expressed | remarkably increased | remarkably increased | subsequently increased | no difference in cell yields | sequentially decreased | 4.3 1 × 10^5 | 9.8 | 4.1 1 × 10^5 | – | highest cell density
